Source: article PMC8126888 (RSC Medicinal Chemistry, 2020)
pIC50: −log10 of the molar value. Where two headings read alike, the source gives them in different places.

Experiments:
[1] = tested on: Leishmania infantum MHOM/MA(BE)/67/ITMAP263 intracellular amastigotes; details: for pIC50: read-out: L. infantum MHOM/MA(BE)/67/ITMAP263 intracellular amastigotes IC50; for L. Inf. pIC50: from L. infantum intracellular amastigote IC50
[2] = tested on: L. donovani MHOM/ET/67/L82 intracellular amastigotes; details: read-out: L. donovani MHOM/ET/67/L82 intracellular amastigotes IC50
[3] = tested on: primary peritoneal mouse macrophages (PMM); details: PMM IC50 / L. infantum IC50
MRC-5SV2 cells = test: Cytotoxicity assay on MRC-5SV2 cells (resazurin)
[4] = tested on: primary peritoneal mouse macrophages (PMM); test: Cytotoxicity to PMM (microscopic scoring within susceptibility assay)
[5] = tested on: primary peritoneal mouse macrophages (PMM); test: cells; details: Macrophage, read-out: PMM IC50
in vitro [6] = details: human, microsomes, pH 7.4, HLM CLint, human liver microsomes
in vitro [7] = details: mouse, microsomes, pH 7.4, MLM CLint, mouse liver microsomes
physchem = details: HPLC, Ascentis Express RP Amide column, pH 7.4, eLogD
in vitro [8] = details: human
in vitro [9] = details: human, HFF-1 cells
in vitro [10] = details: human, HepG2 cells
in vitro [11] = details: PAMPA
[12] = tested on: Leishmania infantum MHOM/MA(BE)/67/ITMAP263 intracellular amastigotes; test: microbe, parasite or virus in culture; details: Macrophage, in Mus musculus; for IC50: read-out: L. Inf. pIC50, from L. infantum intracellular amastigote IC50 (converted)
[13] = tested on: Trypanosoma cruzi, Tulahuen CL2, beta-galactosidase strain; test: microbe, parasite or virus in culture; details: MRC5, read-out: T. cruzi Tulahuen C4 (LacZ) IC50
in vitro [14] = details: Swiss, mouse
in vitro [15] = details: PAMPA; remark: listed apart in the source
[16] = read-out: L. infantum MHOM/MA(BE)/67/ITMAP263 intracellular amastigotes IC50, intracellular amastigotes

Row | Structure (SMILES) | pIC50 [1] | pIC50 [2] | SI (vs PMM) [3] | CC50 (MRC-5SV2 cells) [µM] | pIC50 [4] | pIC50 [5] | microsomal CLint at 0.5 μM (in vitro [6]) [µL/min/mg] | microsomal CLint at 0.5 μM (in vitro [7]) [µL/min/mg] | chromatographic logD (physchem; experimental) | CC50 at 3 days (in vitro [8]) [µM] | CC50 (in vitro [9]) [µM] | CC50 (in vitro [10]) [µM] | Papp (in vitro [11]) [×10⁻⁶ cm/s] | IC50 [12] [µM] | pIC50 [12, 16] | pIC50 [13] | further results
1 | CN(C)S(=O)(=O)c1cccc(NC(=O)CN2CCCc3ccccc32)c1 [Compound Z46159369] | < 4.49 | < 4.49 | 1 | > 32 | < 4.49 | – | – | – | – | – | – | – | – | – | – | – | –
2 | COc1cc(C)c(C)cc1S(=O)(=O)NC1CCCCC1 [Compound Z1542834122] | < 4.49 | < 4.49 | 1 | > 32 | < 4.49 | – | – | – | – | – | – | – | – | – | – | – | –
3 | COc1ccc(OC)c(S(=O)(=O)N2CCC(c3ccccc3)CC2)c1 [DNDI0003370422] | – | – | – | – | – | < 4.19 | 1610 | 664 | 4.2 | > 64 | 4.56 | 63.9 | 6.45 | > 64 | < 4.19 | 4.77 | –
4 | COc1ccc(C#N)cc1S(=O)(=O)N(Cc1ccc(F)cc1)Cc1ccc(C#N)cc1 [DNDI0003371171] | – | – | – | – | – | < 4.19 | – | – | – | > 64 | > 64 | > 64 | – | 33.1 | 4.48 | 4.52 | –
5 | O=S(=O)(c1cccnc1OC(F)F)N(Cc1ccc(F)cc1)Cc1ccc(F)cc1 [DNDI0003371167] | – | – | – | – | – | < 4.19 | 751 | 3070 | 4.8 | > 64 | > 64 | > 64 | 0.98 | 9.33 | 5.03 | 4.51 | –
6 | CCOc1cc(S(=O)(=O)N(Cc2ccccc2)Cc2ccccc2)c(OCC)cc1C [Compound Z1198037468] | 6.06 | 4.60 | 37 | > 32 | < 4.49 | – | – | – | – | – | – | – | – | – | – | – | L. Inf. pIC50 [1]: 6.06
7 | COc1ccc(S(C)(=O)=O)cc1S(=O)(=O)N(Cc1ccc(F)cc1)Cc1ccc(F)cc1 [DNDI0003371164] | – | – | – | – | – | < 4.19 | 296 | – | – | > 64 | 24.3 | 41.7 | 2.57 | 1.29 | 5.89 | 4.66 | –
8 | CNc1ncccc1S(=O)(=O)N(Cc1ccc(F)cc1)Cc1ccc(F)cc1 [DNDI0003371162] | – | – | – | – | – | < 4.19 | 401 | 984 | 4.5 | > 64 | > 64 | 16.9 | 1.61 | 3.55 | 5.45 | 4.84 | –
9 | COc1ccc(OC)c(S(=O)(=O)N(Cc2ccc(F)cc2)c2ccc(F)cc2)c1 [DNDI0003371170] | – | – | – | – | – | < 4.19 | 417 | 703 | – | > 64 | 30.7 | 23.3 | 1.83 | 11.2 | 4.95 | 4.82 | –
10 | COc1ncccc1S(=O)(=O)N(Cc1ccc(F)cc1)Cc1ccc(F)cc1 [DNDI0003371169] | – | – | – | – | – | < 4.19 | 334 | 1170 | 4.4 | > 64 | > 64 | > 64 | 2.56 | 12.9 | 4.89 | 4.35 | –
11 | CCc1c(C(=O)N2CCc3ccc(S(=O)(=O)NC)cc32)[nH]c(C)c1C(C)=O [Compound Z1262206860] | < 4.49 | < 4.49 | 1 | > 32 | < 4.49 | – | – | – | – | – | – | – | – | – | – | – | –
12 | CCN(Cc1ccccc1)S(=O)(=O)c1cc(OC)c(C)cc1OC [Compound Z2235810678] | 5.97 | 5.20 | 30 | > 32 | < 4.49 | – | – | – | – | – | – | – | – | – | – | – | L. Inf. pIC50 [1]: 5.97
13 | CCCCCOc1cc(C)c(C)cc1S(=O)(=O)NC1CCCCC1 [Compound Z1201712752] | 5.98 | 5.36 | 31 | 26.1 | < 4.49 | – | – | – | – | – | – | – | – | – | – | – | L. Inf. pIC50 [1]: 5.98
14 | COc1cc(S(=O)(=O)N2CCN(Cc3ccccc3)CC2)c(OC)cc1C [Compound Z1532943652] | < 4.49 | < 4.49 | 1 | > 32 | < 4.49 | – | – | – | – | – | – | – | – | – | – | – | –
15 | COc1ccc(S(=O)(=O)N(C)C)cc1NC(=O)C1Cc2ccccc2O1 (stereo not shown) [Compound Z109062150] | < 4.49 | < 4.49 | 1 | > 32 | < 4.49 | – | – | – | – | – | – | – | – | – | – | – | –
16 | CCN(CC)S(=O)(=O)c1ccc(OC)c(NC(=O)CN(C)c2ccccc2)c1 [Compound Z46175669] | < 4.49 | < 4.49 | 1 | > 32 | < 4.49 | – | – | – | – | – | – | – | – | – | – | – | –
17 | Nc1ncccc1S(=O)(=O)N(Cc1ccc(F)cc1)Cc1ccc(F)cc1 [DNDI0003371163] | – | – | – | – | – | < 4.19 | 164 | 447 | 4.2 | > 64 | 52.2 | > 64 | 2.18 | > 64 | < 4.19 | 4.38 | –
18 | CCCCOc1cc(C)c(C(C)C)cc1S(=O)(=O)NC1CCCCC1 [Compound Z1346174753] | 6.00 | 5.47 | 16 | 3.74 | 4.80 | – | – | – | – | – | – | – | – | – | – | – | L. Inf. pIC50 [1]: 6
19 | CCCOc1cc(C)c(C)cc1S(=O)(=O)NC1CCCCC1 [Compound Z1198524053] | 5.27 | < 4.49 | 6 | > 32 | < 4.49 | – | – | – | – | – | – | – | – | – | – | – | L. Inf. pIC50 [1]: 5.27
20 | [2H]C([2H])([2H])Oc1ncccc1S(=O)(=O)N(Cc1ccc(F)cc1)Cc1ccc(F)cc1 [DNDI0003371166] | – | – | – | – | – | < 4.19 | 14 | 123 | 3.5 | > 64 | 41.8 | 18.9 | 4.95 | 32.4 | 4.49 | 4.68 | –
21 | COc1ccc(OC)c(S(=O)(=O)N(Cc2ccc(F)cc2)Cc2oc(C)nc2C)c1 [DNDI0003370420] | – | – | – | – | – | < 4.19 | 376 | 2280 | 3.8 | > 64 | 1.24 | > 64 | 46.4 | 2.34 | 5.63 | 4.60 | –
22 | Cn1cccc(S(=O)(=O)N(Cc2ccc(F)cc2)Cc2ccc(F)cc2)c1=O [DNDI0003371168] | – | – | – | – | – | < 4.19 | 222 | 629 | 3.8 | > 64 | 62.5 | > 64 | 18.3 | 20.4 | 4.69 | 4.61 | –
23 | COc1ccc(OC)c(S(=O)(=O)N(Cc2ccc(F)cc2)Cc2ncccn2)c1 [DNDI0003370419] | – | – | – | – | – | < 4.19 | 115 | 844 | 3.4 | > 64 | 19.1 | > 64 | 25.1 | 13.8 | 4.86 | 4.41 | –
24 | O=c1[nH]cccc1S(=O)(=O)N(Cc1ccc(F)cc1)Cc1ccc(F)cc1 [DNDI0003371165] | – | – | – | – | – | < 4.19 | 44 | 218 | 3.8 | > 64 | 23.2 | > 64 | 23.6 | > 64 | < 4.19 | 4.37 | –
25 | COc1ccc(C#N)cc1S(=O)(=O)N(Cc1ccc(F)cc1)Cc1oc(C)nc1C [DNDI0003370421] | – | – | – | – | – | < 4.19 | 392 | 721 | 3.7 | 49.1 | 1.91 | > 64 | 14.8 | 7.94 | 5.10 | 4.58 | –
26 | COc1ccc(Cl)cc1S(=O)(=O)N(Cc1ccccc1)OC [DNDI0003364476] | – | – | 3 | – | – | – | 265 | 1890 | – | > 64 | – | – | – | 24.5 | – | 5.10 | pIC50 (in vitro [14]): < 4.19; chromatographic logD (physchem): 4.3; Papp (in vitro [15]): 5.91 ×10⁻⁶ cm/s; pIC50 ([12]; read-out: L. infantum MHOM/MA(BE)/67/ITMAP263 intracellular amastigotes IC50): 4.61
